# How the values were obtained:
# BaF3 [1] = test: PROTAC activity at CRBN/KIF5B-RET (unknown origin) expressed in mouse BaF3 cells assessed as induction of RET degradation at 10 nM measured after 6 hrs by Western blot analysis relative to control; type: cell-based
# BaF3 [2] = test: PROTAC activity at CRBN/KIF5B-RET (unknown origin) expressed in mouse BaF3 cells assessed as induction of RET degradation at 100 nM measured after 6 hrs by Western blot analysis relative to control; type: cell-based
# BaF3 [3] = test: PROTAC activity at CRBN/KIF5B-RET (unknown origin) expressed in mouse BaF3 cells assessed as induction of RET degradation at 1000 nM measured after 6 hrs by Western blot analysis relative to control; type: cell-based
# BaF3 [4] = test: Antiproliferative activity against mouse BaF3 cells stably expressing KIF5B-RET fusion protein incubated for 72 hrs by CCK-8 assay; type: functional, cell-based; conditions: BaF3, 72 h
# BaF3 [5] = test: Antiproliferative activity against mouse BaF3 cells stably expressing KIF5B-RET-G810C mutant incubated for 72 hrs by CCK-8 assay; type: functional, cell-based; conditions: BaF3, 72 h
# BaF3 [6] = test: Antiproliferative activity against mouse BaF3 cells stably expressing KIF5B-RET-G810R mutant incubated for 72 hrs by CCK-8 assay; type: functional, cell-based; conditions: BaF3, 72 h
# BaF3 [7] = test: Antiproliferative activity against mouse BaF3 cells stably expressing KIF5B-RET-V804M mutant incubated for 72 hrs by CCK-8 assay; type: functional, cell-based; conditions: BaF3, 72 h
# BaF3 [8] = test: Antiproliferative activity against mouse BaF3 cells stably expressing KIF5B-RET-V804L mutant incubated for 72 hrs by CCK-8 assay; type: functional, cell-based; conditions: BaF3, 72 h
# BaF3 [9] = test: Antiproliferative activity against mouse BaF3 cells stably expressing KIF5B-RET-G810S mutant incubated for 72 hrs by CCK-8 assay; type: functional, cell-based; conditions: BaF3, 72 h
# BaF3 [10] = test: Antiproliferative activity against mouse BaF3 cells stably expressing CCDC6-RET incubated for 72 hrs by CCK-8 assay; type: functional, cell-based; conditions: BaF3, 72 h
# BaF3 [11] = test: Antiproliferative activity against mouse BaF3 cells stably expressing CCDC6-RET-V804M mutant incubated for 72 hrs by CCK-8 assay; type: functional, cell-based; conditions: BaF3, 72 h
# BaF3 [12] = test: Antiproliferative activity against mouse BaF3 cells stably expressing CCDC6-RET-G810C mutant incubated for 72 hrs by CCK-8 assay; type: functional, cell-based; conditions: BaF3, 72 h
# BaF3 [13] = test: PROTAC activity at VHL/KIF5B-RET (unknown origin) expressed in mouse BaF3 cells assessed as induction of RET degradation at 10 nM measured after 6 hrs by Western blot analysis relative to control; type: cell-based
# BaF3 [14] = test: PROTAC activity at VHL/KIF5B-RET (unknown origin) expressed in mouse BaF3 cells assessed as induction of RET degradation at 100 nM measured after 6 hrs by Western blot analysis relative to control; type: cell-based
# BaF3 [15] = test: PROTAC activity at VHL/KIF5B-RET (unknown origin) expressed in mouse BaF3 cells assessed as induction of RET degradation at 1000 nM measured after 6 hrs by Western blot analysis relative to control; type: cell-based
smiles,measurement,setting,value
COc1ccc(CN2C3CC2CN(c2ccc(-c4cc(-c5cnn(CCCCCCC#Cc6cccc7c6CN(C6CCC(=O)NC6=O)C7=O)c5)cn5ncc(C#N)c45)cn2)C3)cn1 (centres undefined),Activity,BaF3 [1],27%
same,Activity,BaF3 [2],31%
same,Activity,BaF3 [3],22%
COc1ccc(CN2C3CC2CN(c2ccc(-c4cc(-c5cnn(CCCCC#Cc6cccc7c6CN(C6CCC(=O)NC6=O)C7=O)c5)cn5ncc(C#N)c45)cn2)C3)cn1 (centres undefined),Activity,BaF3 [1],19%
same,Activity,BaF3 [2],23%
same,Activity,BaF3 [3],21%
COc1ccc(CN2C3CC2CN(c2ccc(-c4cc(-c5cnn(C6CCN(CCCCCCC#Cc7cccc8c7CN(C7CCC(=O)NC7=O)C8=O)CC6)c5)cn5ncc(C#N)c45)cn2)C3)cn1 (centres undefined),Activity,BaF3 [1],35%
same,Activity,BaF3 [2],46%
same,Activity,BaF3 [3],47%
COc1ccc(CN2C3CC2CN(c2ccc(-c4cc(-c5cnn(C6CCN(CCCC#Cc7cccc8c7CN(C7CCC(=O)NC7=O)C8=O)CC6)c5)cn5ncc(C#N)c45)cn2)C3)cn1 (centres undefined),Activity,BaF3 [1],19%
same,Activity,BaF3 [2],35%
same,Activity,BaF3 [3],51%
COc1ccc(CN2C3CC2CN(c2ccc(-c4cc(-c5cnn(C6CCN(CCCCCCCC#Cc7cccc8c7CN(C7CCC(=O)NC7=O)C8=O)CC6)c5)cn5ncc(C#N)c45)cn2)C3)cn1 (centres undefined),Activity,BaF3 [1],12%
same,Activity,BaF3 [2],16%
same,Activity,BaF3 [3],30%
COc1ccc(CN2C3CC2CN(c2ccc(-c4cc(-c5cnn(C6CCN(CCCCCC#Cc7cccc8c7CN(C7CCC(=O)N(C)C7=O)C8=O)CC6)c5)cn5ncc(C#N)c45)cn2)C3)cn1 (centres undefined),IC50,BaF3 [4],20 nM
same,IC50,BaF3 [5],700 nM
same,IC50,BaF3 [6],1690 nM
same,IC50,BaF3 [7],70 nM
same,IC50,BaF3 [8],50 nM
same,IC50,BaF3 [9],240 nM
same,IC50,BaF3 [10],10 nM
same,IC50,BaF3 [11],20 nM
same,IC50,BaF3 [12],100 nM
COc1ccc(CN2C3CC2CN(c2ccc(-c4cc(-c5cnn(CCOCCOCCC(=O)N[C@H](C(=O)N6C[C@H](O)C[C@H]6C(=O)N[C@@H](C)c6ccc(-c7scnc7C)cc6)C(C)(C)C)c5)cn5ncc(C#N)c45)cn2)C3)cn1,Activity,BaF3 [13],8%
same,Activity,BaF3 [14],1%
same,Activity,BaF3 [15],-5%
COc1ccc(CN2C3CC2CN(c2ccc(-c4cc(-c5cnn(C6CCN(CC#Cc7cccc8c7CN(C7CCC(=O)NC7=O)C8=O)CC6)c5)cn5ncc(C#N)c45)cn2)C3)cn1 (centres undefined),Activity,BaF3 [1],9%
same,Activity,BaF3 [2],7%
same,Activity,BaF3 [3],14%
COc1ccc(CN2C3CC2CN(c2ccc(-c4cc(-c5cnn(CCCCCCCCC#Cc6cccc7c6CN(C6CCC(=O)NC6=O)C7=O)c5)cn5ncc(C#N)c45)cn2)C3)cn1 (centres undefined),Activity,BaF3 [1],17%
same,Activity,BaF3 [2],47%
same,Activity,BaF3 [3],34%
COc1ccc(CN2C3CC2CN(c2ccc(-c4cc(-c5cnn(CCCCCCC(=O)N[C@H](C(=O)N6C[C@H](O)C[C@H]6C(=O)N[C@@H](C)c6ccc(-c7scnc7C)cc6)C(C)(C)C)c5)cn5ncc(C#N)c45)cn2)C3)cn1,Activity,BaF3 [13],16%
same,Activity,BaF3 [14],49%
same,Activity,BaF3 [15],51%
COc1ccc(CN2C3CC2CN(c2ccc(-c4cc(-c5cnn(CCCCCCCCCCC#Cc6cccc7c6CN(C6CCC(=O)NC6=O)C7=O)c5)cn5ncc(C#N)c45)cn2)C3)cn1 (centres undefined),Activity,BaF3 [1],15%
same,Activity,BaF3 [2],39%
same,Activity,BaF3 [3],54%
COc1ccc(CN2C3CC2CN(c2ccc(-c4cc(-c5cnn(CCCCCCCCCCCCCCC(=O)N[C@H](C(=O)N6C[C@H](O)C[C@H]6C(=O)N[C@@H](C)c6ccc(-c7scnc7C)cc6)C(C)(C)C)c5)cn5ncc(C#N)c45)cn2)C3)cn1,Activity,BaF3 [13],-6%
same,Activity,BaF3 [14],3%
same,Activity,BaF3 [15],20%
COc1ccc(CN2C3CC2CN(c2ccc(-c4cc(-c5cnn(C6CCN(C(=O)CN7CCN(c8ccc9c(c8)C(=O)N(C8CCC(=O)NC8=O)C9=O)CC7)CC6)c5)cn5ncc(C#N)c45)cn2)C3)cn1 (centres undefined),Activity,BaF3 [1],37%
same,Activity,BaF3 [2],49%
same,Activity,BaF3 [3],41%
COc1ccc(CN2C3CC2CN(c2ccc(-c4cc(-c5cnn(CCCCCCCCC(=O)N[C@H](C(=O)N6C[C@H](O)C[C@H]6C(=O)N[C@@H](C)c6ccc(-c7scnc7C)cc6)C(C)(C)C)c5)cn5ncc(C#N)c45)cn2)C3)cn1,Activity,BaF3 [13],1%
same,Activity,BaF3 [14],34%
same,Activity,BaF3 [15],39%
COc1ccc(CN2C3CC2CN(c2ccc(-c4cc(-c5cnn(CCC#Cc6cccc7c6CN(C6CCC(=O)NC6=O)C7=O)c5)cn5ncc(C#N)c45)cn2)C3)cn1 (centres undefined),Activity,BaF3 [1],15%
same,Activity,BaF3 [2],26%
same,Activity,BaF3 [3],25%
COc1ccc(CN2C3CC2CN(c2ccc(-c4cc(OCC(C)(C)O)cn5ncc(C#N)c45)cn2)C3)cn1 [SELPERCATINIB],IC50,BaF3 [5],690 nM
same,IC50,BaF3 [6],1060 nM
same,IC50,BaF3 [8],30 nM
same,IC50,BaF3 [9],570 nM
same,IC50,BaF3 [11],50 nM
same,IC50,BaF3 [12],350 nM
COc1ccc(CN2C3CC2CN(c2ccc(-c4cc(-c5cnn(CCCCC(=O)N[C@H](C(=O)N6C[C@H](O)C[C@H]6C(=O)N[C@@H](C)c6ccc(-c7scnc7C)cc6)C(C)(C)C)c5)cn5ncc(C#N)c45)cn2)C3)cn1,Activity,BaF3 [13],-14%
same,Activity,BaF3 [14],-11%
same,Activity,BaF3 [15],-11%
COc1ccc(CN2C3CC2CN(c2ccc(-c4cc(-c5cnn(C6CCN(CC(=O)N7CCN(c8ccc9c(c8)C(=O)N(C8CCC(=O)NC8=O)C9=O)CC7)CC6)c5)cn5ncc(C#N)c45)cn2)C3)cn1 (centres undefined),Activity,BaF3 [1],30%
same,Activity,BaF3 [2],34%
same,Activity,BaF3 [3],32%
COc1ccc(CN2C3CC2CN(c2ccc(-c4cc(-c5cnn(C6CCN(CCCCC#Cc7cccc8c7CN(C7CCC(=O)NC7=O)C8=O)CC6)c5)cn5ncc(C#N)c45)cn2)C3)cn1 (centres undefined),Activity,BaF3 [1],16%
same,Activity,BaF3 [2],42%
same,Activity,BaF3 [3],48%
COc1ccc(CN2C3CC2CN(c2ccc(-c4cc(-c5cnn(CCCCCCCCCCC(=O)N[C@H](C(=O)N6C[C@H](O)C[C@H]6C(=O)N[C@@H](C)c6ccc(-c7scnc7C)cc6)C(C)(C)C)c5)cn5ncc(C#N)c45)cn2)C3)cn1,Activity,BaF3 [13],17%
same,Activity,BaF3 [14],39%
same,Activity,BaF3 [15],32%

# Source: ChEMBL document CHEMBL6087474, “Discovery of an Efficacious RET PROTAC Degrader with Enhanced Antiproliferative Activity against Resistant Cancer Cells Harboring RET Solvent-Front Mutations” (J Med Chem, 2025)
